From patent US20260248775A1, “NEW INHIBITORS OF PHOSPHATIDYLINOSITOL 3-KINASE” (INSTITUT NATIONAL DE LA SANTÉ ET DE LA RECHERCHE MÉDICALE, priority 2022, published 2026) come the findings set out here.

By IC50 is commonly meant the concentration that gives 50% inhibition.

The target of data set [1] is PI3K-α (PI3K p110a/p65a (h)) (Homo sapiens, UniProt P42336). The data set is described as follows: PI3K-inhibitory activity, enzymatic HTRF assay, PI3K-α. To be noted: 10 μM PIP2, 30 minutes at room temperature, read-out: Class IC50 PI3K-α. Type of data set: biochemical. Here is the method:
(§1) Inhibitory activity of compounds against the Human PtdIns (4,5) P 3-kinase activity was quantified employing the enzymatic HTRF (Homogeneous Time Resolved Fluorescence) Assay.
(§2) PI3K p110a/[…] (h) is incubated in assay buffer containing 10 μM phosphatidylinositol 4,5-bisphosphate and Mg/ATP (concentration as required). The reaction is initiated by the addition of the ATP solution. After incubation for 30 minutes at room temperature, the reaction is stopped by the addition of stop solution containing EDTA and biotinylated phosphatidylinositol-3,4,5-trisphosphate. Finally, detection buffer is added, which contains europium-labelled anti-GST monoclonal antibody, GST-tagged GRP1 PH domain and streptavidin allophycocyanin. The plate is then read in time resolved fluorescence mode and the homogeneous time-resolved fluorescence (HTRF) signal is determined according to the formula HTRF=10000×(Em665 nm/Em620 nm)

In data set [2] the target is PI3K-β (Homo sapiens, UniProt P42338). The data set is described as follows: PI3K-inhibitory activity, enzymatic HTRF assay, PI3K-β. Type of data set: biochemical. The settings on record: read-out: Class IC50 PI3K-β. Here is the method: [The procedure below names another target; the source lists this target under the same test.] as §1, §2
Chain of PI3K-β (P42338 whole entry): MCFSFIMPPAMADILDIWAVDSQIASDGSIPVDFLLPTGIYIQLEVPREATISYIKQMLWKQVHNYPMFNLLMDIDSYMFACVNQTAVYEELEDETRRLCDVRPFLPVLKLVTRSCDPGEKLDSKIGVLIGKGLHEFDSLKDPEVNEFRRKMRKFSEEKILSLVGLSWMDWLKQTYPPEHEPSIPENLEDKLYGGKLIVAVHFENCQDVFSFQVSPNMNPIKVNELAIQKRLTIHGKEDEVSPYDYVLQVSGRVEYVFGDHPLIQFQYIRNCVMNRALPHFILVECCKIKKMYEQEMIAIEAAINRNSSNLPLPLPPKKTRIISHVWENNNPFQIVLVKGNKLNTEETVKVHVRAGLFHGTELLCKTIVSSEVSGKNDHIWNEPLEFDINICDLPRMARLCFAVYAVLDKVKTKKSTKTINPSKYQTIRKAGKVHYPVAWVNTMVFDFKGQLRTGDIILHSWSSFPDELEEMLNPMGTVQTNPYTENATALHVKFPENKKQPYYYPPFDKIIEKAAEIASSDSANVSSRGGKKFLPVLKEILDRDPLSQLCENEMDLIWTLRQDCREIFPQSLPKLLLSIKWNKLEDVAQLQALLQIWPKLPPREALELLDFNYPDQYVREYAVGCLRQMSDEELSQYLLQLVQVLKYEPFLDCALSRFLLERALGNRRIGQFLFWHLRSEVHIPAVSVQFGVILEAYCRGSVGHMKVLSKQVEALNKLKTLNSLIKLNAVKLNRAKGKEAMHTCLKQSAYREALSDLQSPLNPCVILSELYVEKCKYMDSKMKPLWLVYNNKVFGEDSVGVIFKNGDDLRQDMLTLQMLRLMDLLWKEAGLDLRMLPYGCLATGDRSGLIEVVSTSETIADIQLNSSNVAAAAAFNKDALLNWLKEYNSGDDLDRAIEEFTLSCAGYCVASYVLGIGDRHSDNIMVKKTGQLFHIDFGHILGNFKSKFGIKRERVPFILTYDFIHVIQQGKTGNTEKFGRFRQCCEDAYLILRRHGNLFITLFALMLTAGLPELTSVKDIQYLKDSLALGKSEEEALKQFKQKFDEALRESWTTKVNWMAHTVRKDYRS
Chain of PI3K-β (P27986 whole entry partner): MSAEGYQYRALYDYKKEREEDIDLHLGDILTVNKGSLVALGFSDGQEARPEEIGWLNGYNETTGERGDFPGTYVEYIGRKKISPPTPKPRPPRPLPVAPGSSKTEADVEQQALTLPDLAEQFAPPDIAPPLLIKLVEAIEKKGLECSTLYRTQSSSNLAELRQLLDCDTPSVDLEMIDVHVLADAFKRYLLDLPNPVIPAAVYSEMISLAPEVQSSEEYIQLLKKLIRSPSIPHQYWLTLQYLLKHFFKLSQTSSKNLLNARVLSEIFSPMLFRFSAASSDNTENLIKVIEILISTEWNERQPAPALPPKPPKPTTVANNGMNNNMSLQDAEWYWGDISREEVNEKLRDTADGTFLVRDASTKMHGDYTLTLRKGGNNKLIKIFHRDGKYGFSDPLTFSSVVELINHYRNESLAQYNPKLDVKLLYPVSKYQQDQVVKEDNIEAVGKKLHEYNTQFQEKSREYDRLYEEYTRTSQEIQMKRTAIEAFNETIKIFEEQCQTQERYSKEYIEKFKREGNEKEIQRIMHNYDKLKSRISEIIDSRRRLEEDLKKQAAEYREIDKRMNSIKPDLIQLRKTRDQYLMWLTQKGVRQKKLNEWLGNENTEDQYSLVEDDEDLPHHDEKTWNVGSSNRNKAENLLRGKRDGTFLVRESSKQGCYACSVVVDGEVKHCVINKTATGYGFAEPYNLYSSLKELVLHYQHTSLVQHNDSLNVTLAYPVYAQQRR
A general note: TR-FRET usually uses a lanthanide donor and a delayed reading to cut background.

Data set [3] has as its target PI3K-γ (Homo sapiens, UniProt P48736). The data set is described as follows: PI3K-inhibitory activity, enzymatic HTRF assay, PI3K-γ. Type of data set: biochemical. The settings on record: read-out: Class IC50 PI3K-γ. On the procedure: [The procedure below names another target; the source lists this target under the same test.] as §1, §2
In data set [4] the target is PI3K-δ (Homo sapiens, UniProt O00329). The data set is described as follows: PI3K-inhibitory activity, enzymatic HTRF assay, PI3K-δ. Type of data set: biochemical. To be noted: read-out: Class IC50 PI3K-δ.
Chain of PI3K-δ (O00329 whole entry): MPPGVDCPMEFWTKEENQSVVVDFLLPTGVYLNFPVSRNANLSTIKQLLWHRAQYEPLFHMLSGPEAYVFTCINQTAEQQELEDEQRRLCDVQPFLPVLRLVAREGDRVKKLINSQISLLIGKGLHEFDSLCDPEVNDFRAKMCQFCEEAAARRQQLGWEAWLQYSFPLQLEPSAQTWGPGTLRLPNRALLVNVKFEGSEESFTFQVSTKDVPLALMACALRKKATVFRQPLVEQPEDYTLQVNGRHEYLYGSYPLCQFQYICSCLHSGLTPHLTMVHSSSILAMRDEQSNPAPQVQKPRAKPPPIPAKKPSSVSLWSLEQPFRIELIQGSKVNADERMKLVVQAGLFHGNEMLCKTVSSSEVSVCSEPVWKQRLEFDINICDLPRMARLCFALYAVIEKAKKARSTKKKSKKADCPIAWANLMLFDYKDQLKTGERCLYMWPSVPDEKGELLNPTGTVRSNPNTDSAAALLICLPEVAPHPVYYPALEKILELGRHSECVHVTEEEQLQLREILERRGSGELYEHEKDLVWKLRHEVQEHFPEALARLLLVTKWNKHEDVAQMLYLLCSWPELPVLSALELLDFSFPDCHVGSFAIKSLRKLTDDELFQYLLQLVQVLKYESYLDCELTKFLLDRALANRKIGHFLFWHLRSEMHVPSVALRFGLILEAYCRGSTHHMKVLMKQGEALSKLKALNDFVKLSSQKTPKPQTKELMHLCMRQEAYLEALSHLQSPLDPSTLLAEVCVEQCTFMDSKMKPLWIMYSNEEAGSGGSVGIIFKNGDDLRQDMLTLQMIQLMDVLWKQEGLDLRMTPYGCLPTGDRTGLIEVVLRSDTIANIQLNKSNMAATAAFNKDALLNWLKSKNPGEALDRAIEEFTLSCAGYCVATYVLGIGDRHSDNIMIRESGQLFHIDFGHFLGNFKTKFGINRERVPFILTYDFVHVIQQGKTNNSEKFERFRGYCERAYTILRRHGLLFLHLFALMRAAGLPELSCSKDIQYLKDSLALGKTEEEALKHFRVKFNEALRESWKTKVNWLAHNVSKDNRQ
Chain of PI3K-δ (P27986 whole entry partner): as the sequence (P27986 whole entry partner) above
Data set [5] concerns NZBWF1/J mice. The data set is described as follows: Kidney lesions in lupus model, uninephrectomized NZBWF1/J mice. The format is in vivo, mouse. To be noted: 50 mg/kg/day orally. On the procedure: FIG. 1 (A to C) illustrates the ability of Compound 5 of the invention to improve kidney lesions in NZBWF1/J mouse model. A. Urinary albumin to creatinine ratio (Ualb/Cre) (Ordinate, mg/mmol). Abscissa (From left to right): Vehicle and Compound 5 (50 mg/kg). B. Blood urea nitrogen level (BUN) (Ordinate, mmol/L). Abscissa (From left to right): Vehicle and Compound 5 (50 mg/kg). C. Glomerular lesion score of kidneys 4 weeks after uninephrectomy followed by treatment with either the vehicle or Compound 5 (n=6 mice per group). AU: Arbitrary Unit (Ordinate). Abscissa (From left to right): Vehicle and Compound 5 (50 mg/kg).
NZBWF1/J mice gradually develop immune glomerulonephritis characterized by proteinuria and kidney dysfunction starting around 25 weeks of age. The uninephrectomy model was employed and uninephrectomy was performed on 12 female mice at 24 weeks of age.
As the incidence and severity of symptoms are more pronounced in females, only females were used in this study. The mice were then randomly assigned to receive either the vehicle (n=6) or Compound 5 50 mg/kg/day orally (n=6) for a duration of 4 weeks. At the end of the treatment period, the mice were sacrificed and their kidney histology was compared to samples obtained during the uninephrectomy procedure.

Data set [6] is described as follows: Blood glucose after repeated oral gavage in C57B16 mice. To be noted: 50 mg/kg oral gavage daily for 5 days, measured on day 6, C57B16 mice, vs vehicle. Type of data set: in vivo, mouse. On the procedure:
C57B16 mice (n=6 mice per group, 3 males and 3 females) aged of 8 weeks old were daily treated by either vehicle or Compound 5 (50 mg/kg) during 5 consecutive days through oral gavage.
On day 6, blood glucose concentrations were measured at different time points before and after drug administration.

Data set [7] can be described thus: Blood insulin concentration after repeated oral gavage in C57B16 mice. The format is in vivo, mouse. The settings on record: 50 mg/kg oral gavage daily for 5 days, plasma on day 6, male C57B16 mice, FIG. 2. Here is the method: FIG. 2 illustrates the variation of insulin over time for the groups of mice treated either with a vehicle or with Compound 5 of the invention. Ordinate: insulin (ng/ml). Abscissa: time (hours).
C57B16 mice (n=3 mice per group, 3 males) aged of 8 weeks old were daily treated by either vehicle or Compound 5 (50 mg/kg) during 5 consecutive days through oral gavage. On day 6, insulin concentrations were measured at different time points before and after drug administration.
Insulin level was measured in plasma (7 μL in duplicate) using MSD u.plex (Mesoscale, ref 1526HK).

Chain of PI3K-α (PI3K p110a/p65a (h)) (P42336 whole entry): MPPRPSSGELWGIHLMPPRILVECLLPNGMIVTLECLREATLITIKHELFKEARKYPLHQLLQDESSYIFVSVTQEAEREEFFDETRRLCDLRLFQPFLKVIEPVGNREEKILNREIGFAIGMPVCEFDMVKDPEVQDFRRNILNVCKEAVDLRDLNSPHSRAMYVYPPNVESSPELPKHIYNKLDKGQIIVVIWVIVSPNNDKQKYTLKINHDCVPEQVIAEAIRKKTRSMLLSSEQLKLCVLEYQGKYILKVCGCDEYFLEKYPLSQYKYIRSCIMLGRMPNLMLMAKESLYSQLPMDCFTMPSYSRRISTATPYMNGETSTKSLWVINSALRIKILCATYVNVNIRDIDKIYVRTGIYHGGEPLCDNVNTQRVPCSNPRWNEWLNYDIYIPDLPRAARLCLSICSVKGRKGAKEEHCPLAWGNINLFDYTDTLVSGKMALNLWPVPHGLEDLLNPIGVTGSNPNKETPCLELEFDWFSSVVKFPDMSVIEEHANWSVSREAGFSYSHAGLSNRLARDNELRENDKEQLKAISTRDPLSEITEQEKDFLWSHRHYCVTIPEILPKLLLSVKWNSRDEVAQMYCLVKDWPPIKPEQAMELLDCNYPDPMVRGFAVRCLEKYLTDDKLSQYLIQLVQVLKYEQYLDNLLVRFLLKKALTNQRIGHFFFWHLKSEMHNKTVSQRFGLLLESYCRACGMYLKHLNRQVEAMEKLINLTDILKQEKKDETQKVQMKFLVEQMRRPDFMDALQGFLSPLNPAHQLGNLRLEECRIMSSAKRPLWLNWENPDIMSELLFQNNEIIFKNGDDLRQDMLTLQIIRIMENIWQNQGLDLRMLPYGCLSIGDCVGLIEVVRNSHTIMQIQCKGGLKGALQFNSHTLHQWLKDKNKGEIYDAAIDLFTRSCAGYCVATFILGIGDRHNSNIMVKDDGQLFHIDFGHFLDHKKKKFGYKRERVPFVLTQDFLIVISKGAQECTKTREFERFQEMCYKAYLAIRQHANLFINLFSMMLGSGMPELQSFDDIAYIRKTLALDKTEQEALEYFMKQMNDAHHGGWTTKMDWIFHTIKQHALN
Chain of PI3K-γ (P48736 whole entry): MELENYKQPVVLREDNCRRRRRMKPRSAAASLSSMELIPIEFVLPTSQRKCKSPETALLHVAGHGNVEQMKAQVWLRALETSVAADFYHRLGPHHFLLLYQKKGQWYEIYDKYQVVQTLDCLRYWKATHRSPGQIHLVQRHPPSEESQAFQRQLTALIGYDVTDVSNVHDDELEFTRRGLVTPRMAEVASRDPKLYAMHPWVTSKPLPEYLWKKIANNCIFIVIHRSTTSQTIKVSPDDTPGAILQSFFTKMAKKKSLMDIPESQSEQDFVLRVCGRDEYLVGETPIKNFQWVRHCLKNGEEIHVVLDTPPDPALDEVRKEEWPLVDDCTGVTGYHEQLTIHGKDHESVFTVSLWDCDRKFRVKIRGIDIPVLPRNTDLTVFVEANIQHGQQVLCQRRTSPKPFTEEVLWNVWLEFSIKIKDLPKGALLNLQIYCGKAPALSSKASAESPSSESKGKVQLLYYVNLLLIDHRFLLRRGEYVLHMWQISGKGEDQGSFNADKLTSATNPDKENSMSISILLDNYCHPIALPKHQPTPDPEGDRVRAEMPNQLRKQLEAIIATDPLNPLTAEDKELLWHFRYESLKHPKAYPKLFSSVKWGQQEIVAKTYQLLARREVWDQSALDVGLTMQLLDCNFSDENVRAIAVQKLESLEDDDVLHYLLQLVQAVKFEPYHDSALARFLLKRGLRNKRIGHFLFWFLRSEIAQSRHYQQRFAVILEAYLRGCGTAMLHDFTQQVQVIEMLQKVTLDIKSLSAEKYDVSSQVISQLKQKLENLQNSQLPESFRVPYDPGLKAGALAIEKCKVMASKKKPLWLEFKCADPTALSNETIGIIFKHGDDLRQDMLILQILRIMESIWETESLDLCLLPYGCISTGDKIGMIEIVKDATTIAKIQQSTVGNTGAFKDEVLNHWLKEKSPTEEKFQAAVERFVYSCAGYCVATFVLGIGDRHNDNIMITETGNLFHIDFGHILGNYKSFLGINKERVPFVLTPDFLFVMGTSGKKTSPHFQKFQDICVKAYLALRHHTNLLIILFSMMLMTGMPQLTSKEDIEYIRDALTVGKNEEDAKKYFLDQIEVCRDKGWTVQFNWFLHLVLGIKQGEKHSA

In the case of `Cc1nc(NC(=O)N2CC(F)(F)C[C@H]2C(N)=S)sc1-c1ccnc(C(C)(C)C(F)(F)F)c1` [Compound 1, (S)-2-carbamothioyl-4,4-difluoro-N-(4-methyl-5-(2-(1,1,1-trifluoro-2-methylpropan-2-yl)pyridin-4-yl)thiazol-2-yl)pyrrolidine-1-carboxamide], the 50% inhibitory concentration (IC50) was 200 to 500 nM in data set [1], over 1000 nM in data set [2], over 1000 nM in data set [3] and 200 to 500 nM in data set [4].

In the case of `Cc1nc(NC(=O)N2C[C@H](F)C[C@H]2C(N)=S)sc1-c1ccnc(C(C)(C)C(F)(F)F)c1` [Compound 2, (2S,4R)-2-carbamothioyl-4-fluoro-N-(4-methyl-5-(2-(1,1,1-trifluoro-2-methylpropan-2-yl)pyridin-4-yl)thiazol-2-yl)pyrrolidine-1-carboxamide], the IC50 was 50 to 200 nM in data set [1], over 1000 nM in data set [2], 200 to 500 nM in data set [3] and 200 to 500 nM in data set [4].

For `Cc1nc(NC(=O)N2C[C@@H](F)C[C@H]2C(N)=S)sc1-c1ccnc(C(C)(C)C(F)(F)F)c1` [Compound 3, (2S,4S)-2-carbamothioyl-4-fluoro-N-(4-methyl-5-(2-(1,1,1-trifluoro-2-methylpropan-2-yl)pyridin-4-yl)thiazol-2-yl)pyrrolidine-1-carboxamide], the IC50 in data set [1] was 50 to 200 nM; in data set [2], over 1000 nM; in data set [3], 200 to 500 nM; in data set [4], over 1000 nM.

For the compound `Cc1nc(NC(=O)N2CC3(C[C@H]2C(N)=S)CC3(F)F)sc1-c1ccnc(C(C)(C)C(F)(F)F)c1` (stereo partly drawn) [Compound 4, (S)-6-carbamothioyl-N-(4-methyl-5-(2-(1,1,1-trifluoro-2-methylpropan-2-yl)pyridin-4-yl)thiazol-2-yl)-1,1-difluoro-5-azaspiro[2,4]heptane-5-carboxamide], the IC50 in data set [1], in data set [2], in data set [3] and in data set [4] was over 1000 nM each time.

Turning to `Cc1nc(NC(=O)N2CCC[C@H]2C(N)=S)sc1-c1ccnc(C(C)(C)C(F)(F)F)c1` [Compound 5, (S)-2-carbamothioyl-N-(4-methyl-5-(2-(1,1,1-trifluoro-2-methylpropan-2-yl)pyridin-4-yl)thiazol-2-yl)pyrrolidine-1-carboxamide], the IC50 in data set [1] is at most 50 nM; in data set [2] it was over 1000 nM; in data set [3] it was 200 to 500 nM; in data set [4], 200 to 500 nM. Also, in data set [5] (4 weeks after uninephrectomy, histology, FIG. 1C), the “glomerular lesions (glomerular lesion score)” value is reported as “remained stable”. The kidney-to-body weight ratio result in data set [5] (4 weeks, female uninephrectomized NZBWF1/J mice) was “notably decreased”. Moreover, the “albuminuria (urinary albumin to creatinine ratio)” value in data set [5] (4 weeks, female uninephrectomized NZBWF1/J mice, vs vehicle, FIG. 1A) is recorded as “significant reductions”. Moreover, the “blood urea nitrogen levels” value in data set [5] (4 weeks, female uninephrectomized NZBWF1/J mice, vs vehicle, FIG. 1B) is “significant reductions”. Moreover, the blood glucose entry in data set [6] was “modest increase”. For the same compound, the blood insulin concentration result in data set [7] was “no increase”.

On to `Cc1nc(NC(=O)N2CCC[C@@]2(C)C(N)=S)sc1-c1ccnc(C(C)(C)C(F)(F)F)c1` [Compound 6, (S)-2-carbamothioyl-2-methyl-N-(4-methyl-5-(2-(1,1,1-trifluoro-2-methylpropan-2-yl)pyridin-4-yl)thiazol-2-yl)pyrrolidine-1-carboxamide], for which the IC50 in data set [1], in data set [2], in data set [3] and in data set [4] was over 1000 nM in each case.

With `CO[C@@H]1C[C@@H](C(N)=S)N(C(=O)Nc2nc(C)c(-c3ccnc(C(C)(C)C(F)(F)F)c3)s2)C1` [Compound 7, (2S,4R)-2-carbamothioyl-4-methoxy-N-(4-methyl-5-(2-(1,1,1-trifluoro-2-methylpropan-2-yl)pyridin-4-yl)thiazol-2-yl)pyrrolidine-1-carboxamide], the IC50 was 50 to 200 nM in data set [1], over 1000 nM in data set [2], 200 to 500 nM in data set [3] and 500 to 1000 nM in data set [4].

On to `CO[C@H]1C[C@@H](C(N)=S)N(C(=O)Nc2nc(C)c(-c3ccnc(C(C)(C)C(F)(F)F)c3)s2)C1` [Compound 8, (2S,4S)-2-carbamothioyl-4-methoxy-N-(4-methyl-5-(2-(1,1,1-trifluoro-2-methylpropan-2-yl)pyridin-4-yl)thiazol-2-yl)pyrrolidine-1-carboxamide], for which the IC50 in data set [1] was 50 to 200 nM; in data set [2], over 1000 nM; in data set [3], 200 to 500 nM; in data set [4], 500 to 1000 nM.

As for `Cc1nc(NC(=O)N2[C@H](C)CC[C@H]2C(N)=S)sc1-c1ccnc(C(C)(C)C(F)(F)F)c1` [Compound 9, (2S,5R)-2-carbamothioyl-5-methyl-N-(4-methyl-5-(2-(1,1,1-trifluoro-2-methylpropan-2-yl)pyridin-4-yl)thiazol-2-yl)pyrrolidine-1-carboxamide], the IC50 in data set [1] is 200 to 500 nM; in data set [2], over 1000 nM; in data set [3], over 1000 nM; in data set [4] it was over 1000 nM.

Turning to `Cc1nc(NC(=O)N2[C@@H](C)CC[C@H]2C(N)=S)sc1-c1ccnc(C(C)(C)C(F)(F)F)c1` [Compound 10, (2S,5S)-2-carbamothioyl-5-methyl-N-(4-methyl-5-(2-(1,1,1-trifluoro-2-methylpropan-2-yl)pyridin-4-yl)thiazol-2-yl)pyrrolidine-1-carboxamide], the IC50 in data set [1], in data set [2], in data set [3] and in data set [4] was over 1000 nM throughout.

On to `Cc1nc(NC(=O)N2C[C@@H](C(F)(F)F)C[C@H]2C(N)=S)sc1-c1ccnc(C(C)(C)C(F)(F)F)c1` [Compound 12, (2S,4S)-2-carbamothioyl-N-(4-methyl-5-(2-(1,1,1-trifluoro-2-methylpropan-2-yl)pyridin-4-yl)thiazol-2-yl)-4-(trifluoromethyl)pyrrolidine-1-carboxamide], for which the IC50 is 500 to 1000 nM in data set [1], over 1000 nM in data set [2], over 1000 nM in data set [3] and over 1000 nM in data set [4].

In the case of `Cc1nc(NC(=O)N2C[C@H](O)C[C@H]2C(N)=S)sc1-c1ccnc(C(C)(C)C(F)(F)F)c1` [Compound 13, (2S,4R)-2-carbamothioyl-4-hydroxy-N-(4-methyl-5-(2-(1,1,1-trifluoro-2-methylpropan-2-yl)pyridin-4-yl)thiazol-2-yl)pyrrolidine-1-carboxamide], the IC50 in data set [1] is at most 50 nM; in data set [2], over 1000 nM; in data set [3] it was 200 to 500 nM; in data set [4] it was 200 to 500 nM.

With `Cc1nc(NC(=O)N2CC[C@H](O)[C@H]2C(N)=S)sc1-c1ccnc(C(C)(C)C(F)(F)F)c1` [Compound 14, (2S,3S)-2-carbamothioyl-3-hydroxy-N-(4-methyl-5-(2-(1,1,1-trifluoro-2-methylpropan-2-yl)pyridin-4-yl)thiazol-2-yl)pyrrolidine-1-carboxamide], the IC50 in data set [1] was at most 50 nM; in data set [2] it was over 1000 nM; in data set [3], 200 to 500 nM; in data set [4], 200 to 500 nM.
